According to patent US20130189382A1, “Use of fucoxanthin in the preparation of product for improving memory and having neuroprotective effect associated with neurodegenerative disorder” (Beijing Gingko Group Biological Technology Co., Ltd., priority 2010, published 2013):
Marks after values point to notes of the source that are not given here.

What was measured:
[1] = system: rat brain cortical neurons induced by Aβ25-35; test: Cell survival rate by MTT method in neurons damaged by Aβ25-35; type: cell-based; conditions: control = 100%
Text: 1) kill zero to four-day old neonatal rats, immerse the rats in 75% alcohol for 2 to 3 seconds, put the rats in a sterile culture dish, take their brains, and place the brains in a sterile culture dish containing cold D-Hanks liquid, remove meninges and blood vessels, and isolate the cerebral cortex.
2) place the isolated tissues in a sterile culture dish containing a proper amount of 0.125% trypsin solution, cutting up the tissues into a size of about 0.5 mm*0.5 mm*0.5 mm, and place them for 5 minutes at room temperature.
3) transfer the tissue blocks to a 15 ml centrifugal tube, add a proper amount of DMEM-F12 culture medium containing 10% bovine serum to terminate digestion, blow gently with a bend suction pipe to obtain a single cell suspension.
4) filter the cells with a 400-mesh cell strainer.
5) perform centrifugation at 1000 rpm for 5 minutes, discard the supernatant, add a D-Hanks liquid to wash the cells, perform centrifugation at 1000 rpm for 5 minutes and discard the supernatant.
6) add a proper amount of DMEM-F12 culture medium containing 10% bovine serum, count the cells, according to a concentration of 1*10^5 cells/ml, inoculate cells in a 96-pore plate or a 24-pore plate, which applied with 10 μg/ml of polylysine as a basic layer, place the plate in a CO2 incubator and culture at 37 °C in a CO2 concentration of 5%.
7) 24 hours later, replace the culture medium with a DMEM-F12 culture medium containing 5 mg/L cytarabine and 10% bovine serum; 24 hours later, replace the culture medium with a DMEM-F12 culture medium containing 2% B-27 and 10% bovine serum; replace the culture medium with a DMEM-F12 culture medium containing 2% B-27 and 10% bovine serum every 2 days subsequently to change the solution.
A total of 8 experiment groups are set for cell survival rate detection, including a normal control group, a model group, 5 medicament groups of different concentrations (drug concentrations (the drug concentrations described herein refer to the dry weight of fucoxanthin): 0.39, 0.78, 1.56, 3.12 and 6.25 μg/ml) and a medicament control group (6.25 μg/ml). Other detection indexes: SOD, GSH-PX, T-AOC, MDA and cell morphological observation in which 5 experimental groups are set in total, including a normal control group, a model group and 3 medicament groups of different concentrations (drug concentrations: 0.39, 0.78 and 1.56 μg/ml).
Take cells cultured for 7 days, administer corresponding concentrations of the drug to the medicament groups, add an equal amount of a corresponding solvent to the control group and the model group, incubate for 16 hours, treat groups besides the control group with 5 μM of Aβ25-35 (pre-aged for 7 days at 37□) for 24 hours, take the cell culture medium to detect the T-AOC, the SOD, the MDA and the GSH-PX subsequently, and measure the cell survival rate by MTT method or perform morphological observation with a Hoechst/PI double staining experiment.
Determination of the cell survival rate by MTT method: culture the cells in a 96-pore plate, administer the drug to protect the cells for 16 hours, after damaging the cells by Aβ25-35 for 24 hours, add 5 mg/ml of MTT to the culture medium, continue to culture for 4 hours, terminate the culture, remove the culture medium through careful suction, add 200 μl of dimethyl sulfoxide to each pore, measure the absorbance of each pore at Optical Density (OD) 490 nm with an enzyme-labeled instrument after the crystals are completely dissolved and calculate the cell survival rate by taking the control group as 100%.

[2] = system: rat brain cortical neurons induced by Aβ25-35; test: SOD activity in culture medium of neurons damaged by Aβ25-35; type: cell-based
Text: Aβ25-35 and MTT, purchased from Sigma Company; T-AOC assay kit, MDA assay kit, GSH-PX assay kit and SOD assay kit, purchased from Nanjing Jiancheng Bioengineering Institute; and cell apoptosis fluorescent Hoechst33342/PI double staining reagent kit purchased from Nanjing KeyGEN Biotech Co., Ltd. […] Other detection indexes: […] Three experiments of different samples were repeated to detect each index of this experiment (except the Hoechst/PI double staining experiment and the experiment of cell morphological observation), and all results are obtained via the results of three experiments by using statistical analysis. The SOD activity can reflect ability of organisms to remove ROS indirectly. The influence of the reference substance A (A) and the coarse extracts thereof FX-01 powder (Fx-powder) and Fx-01 oil (Fx-oil) on the SOD activity in the culture medium of the rat brain cortical neuron model induced by Aβ25-35 is detected and the result is as shown in Table 2. […] The SOD activity is improved with the increase of drug concentrations.

[3] = system: rat brain cortical neurons induced by Aβ25-35; test: GSH-PX activity in culture medium of neurons damaged by Aβ25-35; type: cell-based
Text: Aβ25-35 and MTT, purchased from Sigma Company; T-AOC assay kit, MDA assay kit, GSH-PX assay kit and SOD assay kit, purchased from Nanjing Jiancheng Bioengineering Institute; and cell apoptosis fluorescent Hoechst33342/PI double staining reagent kit purchased from Nanjing KeyGEN Biotech Co., Ltd. […] Other detection indexes: […] Three experiments of different samples were repeated to detect each index of this experiment (except the Hoechst/PI double staining experiment and the experiment of cell morphological observation), and all results are obtained via the results of three experiments by using statistical analysis. Detect the influence of the reference substance A (A) and the coarse extracts thereof FX-01 powder (Fx-powder) and Fx-01 oil (Fx-oil) on the GSH-PX activity in the culture medium of the rat brain cortical neuron model induced by Aβ25-35, and the result is as shown in Table 3.

[4] = system: rat brain cortical neurons induced by Aβ25-35; test: T-AOC in culture medium of neurons damaged by Aβ25-35; type: cell-based
Text: Aβ25-35 and MTT, purchased from Sigma Company; T-AOC assay kit, MDA assay kit, GSH-PX assay kit and SOD assay kit, purchased from Nanjing Jiancheng Bioengineering Institute; and cell apoptosis fluorescent Hoechst33342/PI double staining reagent kit purchased from Nanjing KeyGEN Biotech Co., Ltd. […] Other detection indexes: […] Three experiments of different samples were repeated to detect each index of this experiment (except the Hoechst/PI double staining experiment and the experiment of cell morphological observation), and all results are obtained via the results of three experiments by using statistical analysis. The T-AOC can be measured to evaluate the antioxidant capacity of the total antioxidant substances in the system. […] The protective effect of the Fx-powder is improved with the increase of the drug concentrations. However, A and the Fx-oil are not dose-dependent although they can improve the T-AOC.

[5] = system: rat brain cortical neurons induced by Aβ25-35; test: MDA content in culture medium of neurons damaged by Aβ25-35; type: cell-based
Text: Aβ25-35 and MTT, purchased from Sigma Company; T-AOC assay kit, MDA assay kit, GSH-PX assay kit and SOD assay kit, purchased from Nanjing Jiancheng Bioengineering Institute; and cell apoptosis fluorescent Hoechst33342/PI double staining reagent kit purchased from Nanjing KeyGEN Biotech Co., Ltd. […] Other detection indexes: […] Three experiments of different samples were repeated to detect each index of this experiment (except the Hoechst/PI double staining experiment and the experiment of cell morphological observation), and all results are obtained via the results of three experiments by using statistical analysis. ROS is generated by organisms through the enzyme system and the non-enzyme system and the ROS is able to attack polyunsaturated fatty acids in biological membranes, and initiate lipid peroxidation to form lipid peroxides, such as MDA. Therefore, the amount of MDA can reflect the degree of lipid peroxidation in organisms, thereby indirectly reflecting the damage degree of cells attacked by free radicals. […] The Fx-powder can reduce the MDA content in the culture medium of the damaged neurons remarkably and is dose-dependent, and the protective effect of the Fx-powder increases with the increase of drug concentrations. The Fx-oil also has such effect to protect neurons from oxidative damage and is not evidently dose-dependent. The reference substance A presents certain protective effect at a low dose, but the effect is seemingly reversed at medium and high doses, along with an increase in the MDA content. However, there is no statistical difference compared with the model group.

[6] = system: rat brain cortical neurons induced by Aβ25-35; test: Neuron morphological detection by Hoechst/PI double staining; type: cell-based; conditions: compared with model group, FIG. 1
Method: The anti-AD activity of fucoxanthin is evaluated by detecting indexes including cell survival rate (MTT), cytomorphology, SOD, GSH-PX, T-AOC and MDA etc. SOD plays an important role in the balance between oxidation and anti-oxidization of organisms. The enzyme is able to remove superoxide anion free radicals and protect cells from damage, and the activity of the enzyme indirectly reflects the ability of organisms to remove ROS. GSH-PX, which is an important enzyme for catalyzing the decomposition of hydrogen peroxide in the body, is able to protect the integrity of cellular membrane structures and functions. The T-AOC can be measured to evaluate the antioxidant capacity of the total anti-oxidant substances in a system. The quantity of MDA reflects the degree of lipid peroxidation in organisms and may indirectly reflect the damage level of cells attacked by free radicals. Hoechst/Propidium Iodide (PI) double staining is applied to cell morphological observation: both PI and Hoechst33342 can bonde with cell nuclear Deoxyribonucleic Acid (DNA) (or Ribonucleic Acid (RNA)). However, PI fails to get through normal cellular membranes while Hoechst is a membrane-permeable fluorescent dye. Therefore, necrotic cells or cells whose cellular membranes are damaged during late apoptosis are stained red by PI while normal cells and cells in early apoptosis or mid-apoptosis are stained blue by Hoechst. However, nucleolus of apoptotic cell present a bright blue color due to concentration. Normal cells (blue), apoptotic cells (bright blue) and necrotic cells (red) can be distinguished according to different colors. However, the accompanying drawings in the specification are colorless, thus the colors are replaced by hollow rounds (blue), grey rounds (bright blue) and black rounds (red). […] Other detection indexes: […] […]

[7] = system: memory acquisition of mice; test: Step-down test, memory acquisition of mice; type: in vivo; conditions: 0.42 mg/kg·bw by lavage for 30 days
Method: (§1) 1.1 Material: pure fucoxanthin prepared by our company, and the recommended daily intake for a mouse is equal to the daily dose 4 mg of the human body, male Kuming mice, 6 to 8 weeks old, bodyweight ranging from 18 to 22 g.
(§2) 1.2 dose and group: take the daily dose, i.e. 4 mg of fucoxanthin of the human body as a dose group, turn the dose into the daily dose of the mice, and set a blank control group.
1.51 Step-down test: select 20 male mice with a bodyweight of 18 to 22 g, randomly divide the mice into a blank control group and a medication group, administer fucoxanthin to the medication group by lavage, conduct step-down training to the mice after administering the sample to the mice continuously for 30 days, put the animals in a reaction tank for adaption for 3 minutes, introduce a 36V alternating current, and the normal reaction of the animals was to jump back to the insulated platform quickly. Most of the animals might jump onto the copper grids again or jump onto the copper grids for multiple times, and jump back onto the platform after receiving electric shocks. After training once, the animals were placed on the platform in the reaction tank, record the number of electric shocks (number of errors) received by each mouse within 5 minutes as the learning performance, retest 24 hours later, and record the number of animals that received the electric shocks, the latency for the animals to step down the platform for the first time, and number of errors within 3 minutes.
(§3) 1.6 Data processing: process the obtained data by utilizing an SPSS1010 statistic software package and employ analysis of variance and X^2 test in the statistic method. […]

[8] = system: memory acquisition of mice; test: Step-through test, memory acquisition of mice; type: in vivo; conditions: 0.42 mg/kg·bw for 30 days
Method: as §1, §2
1.52 Step-through test: the selection of animals, the grouping in the test, the doses for the tested objects, the administration methods and the administration time are the same as those in the step-down test, and step-through training was conducted after administering the samples continuously for 30 days. During the experiment, make the mice face back to the entrance of a bright room and put the mice into the bright room, start a timer, the animals passed through the entrance, entered the […] and received electric shocks, stop the timer, take out the mice and record the time needed for each mouse to be put into the bright room and enter a dark room to receive the electric shocks, i.e. the latency, repeat the test 24 hours later at the same time, and record the latency for each mouse to enter the dark room, the number of errors within 5 minutes, and the number of animals that entered the dark room.
as §3

rat embryo neuron = conditions: literature 2001-335480A published in Japan; cited from earlier work

CC(=O)O[C@H]1CC(C)(C)C(=C=C/C(C)=C/C=C/C(C)=C/C=C/C=C(C)/C=C/C=C(\C)C(=O)C[C@@]23O[C@]2(C)C[C@@H](O)CC3(C)C)[C@](C)(O)C1 [A, fucoxanthin]
Cell survival rate (%) ([1]; 0.39 μg/ml, drug 16 h then 5 μM Aβ25-35 24 h): 98.45 ± 15.89 %
Cell survival rate (%) ([1]; 0.78 μg/ml, drug 16 h then 5 μM Aβ25-35 24 h): 92.36 ± 17.79%
Cell survival rate (%) ([1]; 1.56 μg/ml, drug 16 h then 5 μM Aβ25-35 24 h): 98.99 ± 9.52 %
Cell survival rate (%) ([1]; 3.12 μg/ml, drug 16 h then 5 μM Aβ25-35 24 h): 100.98 ± 8.74 %
Cell survival rate (%) ([1]; 6.25 μg/ml, drug 16 h then 5 μM Aβ25-35 24 h): 103.31 ± 11.93 %
Cell survival rate (%) ([1]; medicament control group (6.25 μg/ml)): 104.47 ± 20.70%
SOD (U/ml) ([2]; 0.39 μg/ml): 15.38 ± 0.71 U/ml
SOD (U/ml) ([2]; 0.78 μg/ml): 15.72 ± 0.87 U/ml
SOD (U/ml) ([2]; 1.56 μg/ml): 15.77 ± 0.83 U/ml
GSH-PX (U/ml) ([3]; 0.39 μg/ml): 38.17 ± 6.84 U/ml
GSH-PX (U/ml) ([3]; 0.78 μg/ml): 61.50 ± 51.62 U/ml
GSH-PX (U/ml) ([3]; 1.56 μg/ml): 34.00 ± 5.29 U/ml
T-AOC (U/ml) ([4]; 0.39 μg/ml): 1.50 ± 0.54 U/ml
T-AOC (U/ml) ([4]; 0.78 μg/ml): 1.26 ± 0.37 U/ml
T-AOC (U/ml) ([4]; 1.56 μg/ml): 1.12 ± 0.13 U/ml
MDA ([5]; 0.39 μg/ml): 5.12 ± 1.17 µmol/mL
MDA ([5]; 0.78 μg/ml): 14.62 ± 3.82 µmol/mL
MDA ([5]; 1.56 μg/ml): 12.34 ± 1.58 µmol/mL
Morphological detection: apoptotic and necrotic cells ([6]; 0.39 μg/ml): slight decrease in the necrotic cells
Morphological detection: apoptotic and necrotic cells ([6]; 0.78 μg/ml): The apoptotic cells and the necrotic cells decrease
Morphological detection: apoptotic and necrotic cells ([6]; 1.56 μg/ml): The apoptotic cells and the necrotic cells decrease
Error response rate (%) Training [7]: 100%
Error response rate (%) Test ([7]; retest 24 h later): 50%
Latency Test ([7]; retest 24 h later): 136.2 ± 25.6 s
Number of errors Test ([7]; retest 24 h later, within 3 minutes): 0.3 ± 0.31
Number of errors Training ([7]; within 5 minutes): 1.1 ± 0.56
Error response rate (%) [8]: 50** %
Latency (seconds) Training [8]: 40.2 ± 6.5 s
Latency (seconds) Test ([8]; test 24 h later): 240.4 ± 43.2 s
Number of errors Test ([8]; within 5 minutes): 0.4 ± 0.3
Effect on rat embryo neuron injuries caused by cerebral ischemia-reperfusion (rat embryo neuron): can inhibit rat embryo neuron injuries caused by cerebral ischemia-reperfusion
